Reference: publication PMC9643456, “Matching amino acids membrane preference profile to improve activity of antimicrobial peptides” (Communications Biology, 2022)
≈ marks a conversion by molar mass, not a printed value. Square brackets hold non-standard residues; d marks the D form. Ends that are not written are not given here. Peptide text beside a SMILES is read from it.

Key:
[1] = Maximum soluble concentration / turbidity; type: physicochemical; settings: lyophilized peptide reconstructed in PBS at 200-6.25 μM; visible turbidity checked every 12 h for 5 days; at least twice
Method: Supplementary Methods Bacteria preparation, Antimicrobial peptides preparation, Minimal-inhibitory-concentration measurements, Hemolysis-activity measurements, Tryptophan fluorescence measurements, Isothermal titration calorimetry measurements, Bacteria membrane ion permeation measurements, Outer-inner membrane permeation, Field-emission scanning electron microscopy and Antimicrobial kinetics were performed as described in Materials and Methods. Liposome (LUV) preparation. Bacterial-membrane-mimic DMPC/DMPG unilamellar vesicles (LUV) and mammalian- membrane-mimic PC/cholesterol vesicles with 100-nm diameters were prepared by extrusion. LiposoFast Liposome Factory Basic unit with stabilizer (Avestin, Ottawa, Canada) was used to extrude liposomes 50 times through a polycarbonate membrane filter (pore diameter, 100 nm; filter diameter, 0.75 inches) (Avestin). […] rac-(1-glycerol)) (sodium salt) (DMPG) (Avanti, Alabama, USA); 1,2-Dimyristoyl-sn-glycero-3-phosphocholine (DMPC) (Avanti); and cholesterol (Sigma, Darmstadt, Germany) were used. For circular dichroism, isothermal titration calorimetry, tryptophan fluorescence, and dynamic light scattering experiments, liposomes were reconstructed and resuspendedwith phosphate-buffered saline (PBS; Welgene Inc, Gyeongsangbuk-do, Korea). For calcein-permeation tests, liposomes were reconstructed with calcein solutions (80 mM, 40 mM, 30 mM, 20 mM, and 10 mM) (Sigma, Darmstadt, Germany), purified with Sephadex-G50 columns (Pharmacia biotech, Stockholm, Sweden), and resuspended with PBS. Maximum-soluble -concentration measurements. […] turbidity with PBS. The lowest concentration of peptide without visible turbidity was determined to be the maximu m soluble concentration. Each experiment was performed at least twice. Circular dichroism (CD) spectrum. DMPC/PG -liposome, PC/cholesterol -liposome, and peptide stock solutions were diluted in PBS. For circular dichroism, PBS with neither liposome nor peptides was also prepared. Liposomes and peptides were mixed to […] Samples were transferred into type J/1 cuvettes (Jasco, Tokyo, Japan). Cuvettes were placed into the J -815 circular -dichroism spectrometer (Jasco, Tokyo, Japan). Measurement parameters were as follows: wavelength, 190 -260 nm; data pitch, 0.2 nm; bandwidth, 1.00 nm; […] Each experiment was performed in triplicate. Data below 197 nm was not analyzed because o f experimental difficulties in obtaining those spectra. Each experiment was performed at least twice. Artificial membrane calcein permeation measurements. Calcein fluorescence was used to measure peptide -induced liposome permeation. Calcein solutions (10 mM, 20 mM, or 60 mM) containing PC/PG liposomes and peptides were diluted in PBS ( ×1, ×2, ×3, ×8). […] Liposome solutions (180 μl) were transferred to wells of black, clear -bottomed 96 -well plates (Costar, New York, USA). Peptide […] Liposome-containing plates and peptide -containing plates were inserted into a Flexstation 3 Multi -Mode Microplate Reader (Molecular Devices, California, USA). Peptide solutions (20 μl) were transferred and mixed with liposome solution automatical ly after 30 sec. […] Measurement parameters were as follows: excitation, 490 nm; emission, 520 nm; temperature, 37 °C. […] was transferred and mixed with the liposome -peptide solu tions automatically after 300 sec to acquire fluorescence at maximum leakage. […] Fluorescence measured between 0 -300 sec after addition of 0 μg/ml peptide was considered the baseline. Each experiment was performed at least twice. Dynamic light scattering (DLS) measurements. Dynamic light scattering was used to measure peptide -induced liposome volume changes. PC/PG -liposome stock solutions and peptides were resuspended in PBS. Liposomes and peptides were mixed to […]

A. baumannii strains = experiment: microbe, parasite or virus in culture
Method: Twenty-six A. baumannii strains were clinically isolated and gifted to us by the Kyungpook National University School of Medicine. One A. baumannii strain (ATCC 17978) was purchased and gifted to us by Kyungpook National University School of Medicine. One A. baumannii strain and 10 K. pneumoniae strains (NCCP) were purchased from the National Culture Collection for Pathogens.
To assess antimicrobial activity, the MIC50 and MIC90 were measured using broth microdilution following CLSI guidelines. […] Each experiment was performed in triplicate. Meropenem (Sigma, Darmstadt, Germany) and colistin were used as control antibiotics. Cation-adjusted Mueller–Hinton broth (CAMHB) (Becton, Dickinson and Company, Franklin Lakes, USA) with supplied calcium (50 mg/L) and magnesium (10 mg/L) was used for the CLSI-test condition. Bacteria in midlog phase and peptides were separately diluted in CAMHB. The bacteria and peptide solutions were then mixed in 96-well polyethylene plates (SPL, Gyeonggi-do, Korea) and incubated for 18 h at 37 °C. The final concentration for bacteria was 5 × 10^5 CFU/ml. […] The MIC was defined to be the lowest concentration of peptide without visible turbidity by comparing with control antibiotics with the unaided eye. […] Each experiment was performed in triplicate. MICs in albumin and acetic acid solutions were measured using the same protocol but with 0.2% bovine serum albumin (Bovogen, Keilor, Australia), 0.01% acetic acid (Merck, New Jersey, USA), and CAMHB with both calcium and magnesium. In addition, MICs used in the antibiotic resistance acquisition test, the outer–inner membrane permeation test, and the transmembrane potential test and for FE-SEM were individually determined. The final bacterial concentrations used were as follows: for resistance acquisition, optical density (OD) 0.01; for outer–inner membrane permeability assays (LB), OD 0.1; for the transmembrane potential test, 1 × 10^8 CFU/ml (OD 0.171); […]. Inhibitory activity unidentifiable by direct observation was determined by counting the CFUs. Each experiment was performed at least twice.

WLVWIWRRR-NH2 [LWCopW29]
Maximum soluble concentration in PBS [1]: > 200 µM

CC[C@@H](C)[C@@H](NC(=O)[C@@H](Cc1c[nH]c2ccccc12)NC(=O)[C@H](NC(=O)[C@@H](CC(C)C)NC(=O)[C@H](N)Cc1c[nH]c2ccccc12)C(C)C)C(=O)N[C@H](Cc1c[nH]c2ccccc12)C(=O)N[C@H](CCCNC(=N)N)C(=O)N[C@H](CCCNC(=N)N)C(=O)N[C@H](CCCNC(=N)N)C(N)=O [WCopW29] (H-[dW][dL][dV][dW][dI][dW][dR][dR][dR]-NH2)
Maximum soluble concentration in PBS [1]: > 200 µM
Number of A. baumannii strains at MIC (μM) 0.63 (A. baumannii strains; of 30 strains): 3
Number of A. baumannii strains at MIC (μM) 1.25 (A. baumannii strains; of 30 strains): 25
Number of A. baumannii strains at MIC (μM) 2.5 (A. baumannii strains; of 30 strains): 2
Number of A. baumannii strains at MIC (μM) 5 (A. baumannii strains; of 30 strains): 0
Number of A. baumannii strains at MIC (μM) 10 (A. baumannii strains; of 30 strains): 0
Number of A. baumannii strains at MIC (μM) ≤0.31 (A. baumannii strains; of 30 strains): 0
Number of A. baumannii strains at MIC (μM) ≥20 (A. baumannii strains; of 30 strains): 0
MIC, A. baumannii ATCC 17978 (A. baumannii strains; strains, 18 h): 2.5 µM (≈ 3.42 µg/mL)
MIC, A. baumannii ATCC BBA 1605 (A. baumannii strains; strains, 18 h): 0.63 µM (≈ 0.863 µg/mL)
MIC, A. baumannii Isolated strain 1 (A. baumannii strains; strains, 18 h): 1.25 µM (≈ 1.71 µg/mL)
MIC, A. baumannii Isolated strain 3 (A. baumannii strains; strains, 18 h): 2.5 µM (≈ 3.42 µg/mL)
MIC, A. baumannii Isolated strain 6 (A. baumannii strains; strains, 18 h): 1.25 µM (≈ 1.71 µg/mL)
MIC, A. baumannii Isolated strain 10 (A. baumannii strains; strains, 18 h): 1.25 µM (≈ 1.71 µg/mL)
MIC, A. baumannii Isolated strain 14 (A. baumannii strains; strains, 18 h): 1.25 µM (≈ 1.71 µg/mL)
MIC, A. baumannii Isolated strain 15 (A. baumannii strains; strains, 18 h): 1.25 µM (≈ 1.71 µg/mL)
MIC, A. baumannii Isolated strain 16 (A. baumannii strains; strains, 18 h): 1.25 µM (≈ 1.71 µg/mL)
MIC, A. baumannii Isolated strain 19 (A. baumannii strains; strains, 18 h): 1.25 µM (≈ 1.71 µg/mL)
MIC, A. baumannii Isolated strain 22 (A. baumannii strains; strains, 18 h): 1.25 µM (≈ 1.71 µg/mL)
MIC, A. baumannii Isolated strain 39 (A. baumannii strains; strains, 18 h): 1.25 µM (≈ 1.71 µg/mL)
MIC, A. baumannii Isolated strain 44 (A. baumannii strains; strains, 18 h): 1.25 µM (≈ 1.71 µg/mL)
MIC, A. baumannii Isolated strain 66 (A. baumannii strains; strains, 18 h): 1.25 µM (≈ 1.71 µg/mL)
MIC, A. baumannii Isolated strain 68 (A. baumannii strains; strains, 18 h): 1.25 µM (≈ 1.71 µg/mL)
MIC, A. baumannii Isolated strain 69 (A. baumannii strains; strains, 18 h): 1.25 µM (≈ 1.71 µg/mL)
MIC, A. baumannii Isolated strain 71 (A. baumannii strains; strains, 18 h): 1.25 µM (≈ 1.71 µg/mL)
MIC, A. baumannii Isolated strain 76 (A. baumannii strains; strains, 18 h): 1.25 µM (≈ 1.71 µg/mL)
MIC, A. baumannii Isolated strain 80 (A. baumannii strains; strains, 18 h): 0.63 µM (≈ 0.863 µg/mL)
MIC, A. baumannii Isolated strain 82 (A. baumannii strains; strains, 18 h): 1.25 µM (≈ 1.71 µg/mL)
MIC, A. baumannii Isolated strain 86 (A. baumannii strains; strains, 18 h): 0.63 µM (≈ 0.863 µg/mL)
MIC, A. baumannii Isolated strain 89 (A. baumannii strains; strains, 18 h): 1.25 µM (≈ 1.71 µg/mL)
MIC, A. baumannii Isolated strain 102 (A. baumannii strains; strains, 18 h): 1.25 µM (≈ 1.71 µg/mL)
MIC, A. baumannii Isolated strain 127 (A. baumannii strains; strains, 18 h): 1.25 µM (≈ 1.71 µg/mL)
MIC, A. baumannii Isolated strain 141 (A. baumannii strains; strains, 18 h): 1.25 µM (≈ 1.71 µg/mL)
MIC, A. baumannii Isolated strain 144 (A. baumannii strains; strains, 18 h): 1.25 µM (≈ 1.71 µg/mL)
MIC, A. baumannii Isolated strain 147 (A. baumannii strains; strains, 18 h): 1.25 µM (≈ 1.71 µg/mL)
MIC, A. baumannii Isolated strain 152 (A. baumannii strains; strains, 18 h): 1.25 µM (≈ 1.71 µg/mL)
MIC, A. baumannii KCCM 40203 (A. baumannii strains; strains, 18 h): 1.25 µM (≈ 1.71 µg/mL)
MIC, A. baumannii NCCP 14654 (A. baumannii strains; strains, 18 h): 1.25 µM (≈ 1.71 µg/mL)
